According to US20120220590A1, “NOVEL COMPOUNDS AS MODULATORS OF GLUCOCORTICOID RECEPTORS” (priority 2009, published 2012):

How the values were obtained:
[1] = system: LPS-induced TNFα secretion in U 937 cells; assay: Modulation of proinflammatory cytokine production in U 937 cells (transrepression): TNFα; type: cell-based; settings: Homo sapiens, U 937 cells stimulated with 5 μg/mL LPS, inhibition by Dexamethasone at 10 nM considered as 100%, read-out: % TNF α Inhibition; for inhibition at 0.1 µM: 0.1 μM test compound; for inhibition at 1 µM: 1 μM test compound
Description: (§1) VI) Modulation of Proinflammatory Cytokine Production in U 937 Cells (Determination of Transrepression)
(§2) Testing of compounds in GR-mediated inhibition of LPS-induced TNFα, IL-1β, and IL-6 secretion in U 937 cells.
(§3) Differentiated U 937 cells are incubated for 2 days in RPMI1640 medium containing 10% CCS (charcoal treated calf serum). The cells are transferred to 96 well plates and stimulated with 5 μg/mL LPS (dissolved in PBS) in the presence or absence of dexamethasone or test compound (dissolved in DMSO, final concentration 0.2%). Control cells are treated with 0.2% DMSO. After required incubation periods, proinflammatory cytokine(s) concentrations in the cell supernatant are measured by ELISA, using the “BD OptEIA™ Set human TNF, BD OptEIA™ Set human IL-6, BD OptEIA™ Set human IL-1β.
(§4) TNF α inhibition induced by Dexamethasone at 10 nM concentration was considered as 100% and % inhibition of the test NCE was determined as compared to Dexamethasone. Dose-response curves are calculated by fitting to a non-linear 4-parameter logistic model, and absolute EC50 (or IC50) values for the determination of dissociation are derived from these curves and the corresponding curve for dexamethasone on the same experimental occasion.

[2] = system: LPS-induced IL-6 secretion in U 937 cells; assay: Modulation of proinflammatory cytokine production in U 937 cells (transrepression): IL-6; type: cell-based; settings: Homo sapiens, U 937 cells stimulated with 5 μg/mL LPS, ELISA; for inhibition at 0.1 µM: 0.1 μM test compound; for inhibition at 1 µM: 1 μM test compound
Description: as §1, §2, §3, §4

Structure (SMILES) | inhibition at 0.1 µM [1] | inhibition at 1 µM [1] | inhibition at 0.1 µM [2] | inhibition at 1 µM [2]
Cc1c(NS(C)(=O)=O)cccc1N(Cc1ccc(C#N)cc1)Cc1ccc(Oc2cc(CO)cc(OCc3cccnc3)c2)cc1 [Example 79, N-(3-((4-cyanobenzyl)(4-(3-(hydroxymethyl)-5-(pyridin-3-ylmethoxy)phenoxy)benzyl)amino)-2-methylphenyl)methanesulfonamide] | 87.7% | 88.2% | 97% | 97%
Cc1c(NS(C)(=O)=O)cccc1N(Cc1ccc(C#N)cc1)Cc1ccc(Oc2cccc(OCCc3cccs3)c2)cc1 [Example 35, N-(3-((4-cyanobenzyl)(4-(3-(2-(thiophen-2-yl)ethoxy)phenoxy)benzyl)amino)-2-methylphenyl)methanesulfonamide] | 41.8% | 83.4% | 28% | 54%
Cc1c(NS(C)(=O)=O)cccc1N(Cc1ccc(C#N)cc1)Cc1ccc(Oc2cc(CO)cc(OCC3CCOC3)c2)cc1 (centres unmarked) [Example 81, N-(3-((4-cyanobenzyl)(4-(3-(hydroxymethyl)-5-((tetrahydrofuran-3-yl)methoxy)phenoxy)benzyl)amino)-2-methylphenyl)methanesulfonamide] | 88.9% | 88.2% |  | 
CCS(=O)(=O)Nc1cccc(N(Cc2ccc(C#N)cc2)Cc2ccc(Oc3cccc(OCc4ccoc4)c3)cc2)c1C [Example 20, N-(3-((4-cyanobenzyl)(4-(3-(furan-3-ylmethoxy)phenoxy)benzyl)amino)-2-methylphenyl)ethanesulfonamide] | 88.9% | 93.6% | 92.2% | 97.9%
CCS(=O)(=O)Nc1cccc(N(Cc2ccc(Oc3cccc(OCCc4cccnc4)c3)cc2)Cc2cccc(C#N)c2)c1C [Example 60, N-(3-((3-cyanobenzyl)(4-(3-(2-(pyridin-3-yl)ethoxy)phenoxy)benzyl)amino)-2-methylphenyl)ethanesulfonamide] | 95.1% | 96.3% | 90% | 91.7%
CCS(=O)(=O)Nc1cccc(N(Cc2ccc(C#N)cc2)Cc2ccc(Oc3cc(CO)cc(OCc4cccnc4)c3)cc2)c1C [Example 85, N-(3-((4-cyanobenzyl)(4-(3-(hydroxymethyl)-5-(pyridin-3-ylmethoxy)phenoxy)benzyl)amino)-2-methylphenyl)ethanesulfonamide] | 88.5% | 91.2% |  | 
Cc1c(NS(C)(=O)=O)cccc1N(Cc1ccc(Oc2cc(OCCc3cccnc3)cc(C(N)=O)c2)cc1)Cc1ccc(C#N)c(F)c1 [Example 83, 3-(4-(((4-cyano-3-fluorobenzyl)(2-methyl-3-(methylsulfonamido)phenyl)amino)methyl)phenoxy)-5-(2-(pyridin-3-yl)ethoxy)benzamide] | 93.4% | 94.5% | 95.7% | 95.1%
CCS(=O)(=O)Nc1cccc(N(Cc2ccc(Oc3cc(CO)cc(OCC4CCOC4)c3)cc2)Cc2cccc(C#N)c2)c1C (centres unmarked) [Example 86, N-(3-((3-cyanobenzyl)(4-(3-(hydroxymethyl)-5-((tetrahydrofuran-3-yl)methoxy)phenoxy)benzyl)amino)-2-methylphenyl)ethanesulfonamide] | 95.5% | 95.6% |  | 
CNC(=O)c1cc(OCCc2cccnc2)cc(Oc2ccc(CN(Cc3ccc(C#N)cc3)c3cccc(NS(C)(=O)=O)c3C)cc2)c1 [Example 74, 3-(4-(((4-cyanobenzyl)(2-methyl-3-(methylsulfonamido)phenyl)amino)methyl)phenoxy)-N-methyl-5-(2-(pyridin-3-yl)ethoxy)benzamide] | 90.4% | 100% | 100% | 100%
Cc1c(NS(C)(=O)=O)cccc1N(Cc1ccc(Oc2cccc(OCCc3cccnc3)c2)cc1)Cc1cccc(C#N)c1 [Example 62, N-(3-((3-cyanobenzyl)(4-(3-(2-(pyridin-3-yl)ethoxy)phenoxy)benzyl)amino)-2-methylphenyl)methanesulfonamide] | 52.6% | 83.7% | 68.4% | 90.8%
CCS(=O)(=O)Nc1cccc(N(Cc2ccc(Oc3cccc(OCC4CCOC4)c3)cc2)Cc2cccc(C#N)c2)c1C (centres unmarked) [Example 16, N-(3-((3-cyanobenzyl)(4-(3-((tetrahydrofuran-3-yl)methoxy)phenoxy)benzyl)amino)-2-methylphenyl)ethanesulfonamide] | 63.2% | 87.4% | 62% | 81%
Cc1c(NS(C)(=O)=O)cccc1N(Cc1ccc(C#N)cc1)Cc1ccc(Oc2cc(CO)cc(OCCc3cccnc3)c2)cc1 [Example 76, N-(3-((4-cyanobenzyl)(4-(3-(hydroxymethyl)-5-(2-(pyridin-3-yl)ethoxy)phenoxy)benzyl)amino)-2-methylphenyl)methanesulfonamide] | 87.6% | 86.2% | 85.7% | 88.8%
Cc1c(NS(C)(=O)=O)cccc1N(Cc1ccc(C#N)cc1)Cc1ccc(Oc2cccc(OCC3CCOC3)c2)cc1 (centres unmarked) [Example 58, N-(3-((4-cyanobenzyl)(4-(3-((tetrahydrofuran-3-yl)methoxy)phenoxy)benzyl)amino)-2-methylphenyl)methanesulfonamide] | 13.1% | 55% | 45% | 76%
Cc1c(NS(C)(=O)=O)cccc1N(Cc1ccc(Oc2cccc(OCC3CCOC3)c2)cc1)Cc1cccc(C#N)c1 (centres unmarked) [Example 55, N-(3-((3-cyanobenzyl)(4-(3-((tetrahydrofuran-3-yl)methoxy)phenoxy)benzyl)amino)-2-methylphenyl)methanesulfonamide] | 1.54% | -1.12% | 55% | 76%
Cc1c(NS(C)(=O)=O)cccc1N(Cc1ccc(Oc2cc(CO)cc(OCC3CCOC3)c2)cc1)Cc1cccc(C#N)c1 (centres unmarked) [Example 80, N-(3-((3-cyanobenzyl)(4-(3-(hydroxymethyl)-5-((tetrahydrofuran-3-yl)methoxy)phenoxy)benzyl)amino)-2-methylphenyl)methanesulfonamide] | 84.1% | 86.5% |  | 
Cc1c(NS(C)(=O)=O)cccc1N(Cc1ccccc1)Cc1ccc(Oc2cccc(OCCc3cccnc3)c2)cc1 [Example 78, N-(3-(benzyl(4-(3-(2-(pyridin-3-yl)ethoxy)phenoxy)benzyl)amino)-2-methylphenyl)methanesulfonamide] | 67.9% | 83.9% | 62% | 74%
Cc1c(NS(C)(=O)=O)cccc1N(Cc1ccc(C#N)cc1)Cc1ccc(Oc2cc(C#N)cc(OCC3CCOC3)c2)cc1 (centres unmarked) [Example 82, N-(3-((4-(3-cyano-5-((tetrahydrofuran-3-yl)methoxy)phenoxy)benzyl)(4-cyanobenzyl)amino)-2-methylphenyl)methanesulfonamide] | 50% | 71.1% | 60% | 83%
Cc1c(NS(C)(=O)=O)cccc1N(Cc1ccc(C#N)cc1)Cc1ccc(Oc2cc(OCCc3cccnc3)cc(C(N)=O)c2)cc1 [Example 75, 3-(4-(((4-cyanobenzyl)(2-methyl-3-(methylsulfonamido)phenyl)amino)methyl)phenoxy)-5-(2-(pyridin-3-yl)ethoxy)benzamide] | 75.3% | 100% | 98.2% | 100%
Cc1c(NS(C)(=O)=O)cccc1N(Cc1ccc(C#N)cc1)Cc1ccc(Oc2cc(C#N)cc(OCCc3cccnc3)c2)cc1 [Example 84, N-(3-((4-(3-cyano-5-(2-(pyridin-3-yl)ethoxy)phenoxy)benzyl)(4-cyanobenzyl)amino)-2-methylphenyl)methanesulfonamide] | 94.6% | 93.7% | 95% | 94.9%
